Experimental data from patent US20260327240A1, “1,4-CINEOLE DERIVATIVE AND INTERMEDIATE THEREOF, HERBICIDE CONTAINING SAID DERIVATIVE AS ACTIVE INGREDIENT, METHOD FOR USING HERBICIDE, AND METHOD FOR PREPARING AGROCHEMICAL COMPOSITION” (HOKKO CHEMICAL INDUSTRY CO., LTD., priority 2023, published 2026).

Columns and labels:
Format in all cases: in vivo
Scirpus juncoides = assay: Test Example 1: herbicidal effect test by soil application in paddy rice; conditions: Schoenoplectiella juncoides, 336 h, 120 g per 10 ares, 14 days after application, read-out: weed inhibition rate
In short: (§1)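 Paddy soil in flooded Wagner pots (~3 cm water), weed seeds sown at 0–1 cm depth, greenhouse; emulsifiable concentrate diluted in water and applied by dropper immediately after sowing at 120 g active ingredient per 10 ares. Duplicate pots; weed inhibition rate (%) scored 14 days after application.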

Monochoria vaginalis = assay: as above; conditions: Pontederia vaginalis, 336 h, 120 g per 10 ares, 14 days after application, read-out: weed inhibition rate
In short: as §1

[1] = system: Echinochloa crus-galli var. formosensis; assay: as above; conditions: Echinochloa crus-galli, 336 h, 120 g per 10 ares, 14 days after application, read-out: weed inhibition rate
In short: as §1

Digitaria ciliaris = assay: Test Example 7: herbicidal effect test by soil application in upland field; conditions: Digitaria ciliaris, 1 day after sowing, 7.5 g per 10 ares, 14 days after application, read-out: weed inhibition rate
Procedure: (§2) Herbicidal Effect Test by Soil Application in Upland Field
(§3) Pots with an area of 36 cm^2 were filled with upland soil (alluvial loam), twenty seeds each of weeds of Digitaria ciliaris, Echinochloa crus-galli, Chenopodium album, and Amaranthus viridis were uniformly mixed with the top 1 cm layer of soil and the surface was lightly pressed down. One day after sowing, an emulsifiable concentrate prepared according to Formulation Example 5 using the compound shown below was diluted with water, and the diluted solution was sprayed onto the soil surface at a rate of 100 liters per 10 ares. The amount of the active ingredient to be applied was equivalent to 7.5 g per 10 ares. Fourteen days after chemical application, the herbicidal effect was evaluated according to the same criteria as in Test Example 1.

Echinochloa crus-galli = assay: as above; conditions: Echinochloa crus-galli, 1 day after sowing, 7.5 g per 10 ares, 14 days after application, read-out: weed inhibition rate
Procedure: as §2, §3

CCOC(C)O[C@H]1C[C@]2(C)O[C@@]1(C(C)C)C[C@H]2OCc1ccccc1F (stereo partly drawn) [1-213, (1R,2S,4S,5R)-2-(1-ethoxyethoxy)-5-((2-fluorobenzyl)oxy)-1-isopropyl-4-methyl-7-oxabicyclo[2.2.1]heptane]
≥ 80%: inhibition at 1200 g/ha (Scirpus juncoides) | inhibition at 1200 g/ha (Monochoria vaginalis) | inhibition at 1200 g/ha [1] | inhibition at 75 g/ha (Digitaria ciliaris) | inhibition at 75 g/ha (Echinochloa crus-galli)
